Assay results from ChEMBL document CHEMBL4325920, “Discovery of Clinical Candidate BMS-823778 as an Inhibitor of Human 11β-Hydroxysteroid Dehydrogenase Type 1 (11β-HSD-1)” (ACS Med Chem Lett, 2018).
The source made the active and inactive calls. No cut-off for these calls is given here.

How the values were obtained:
[1] = biological target: T1, 11-beta-hydroxysteroid dehydrogenase type 2 (Mus musculus) (UniProt P51661); test: Inhibition of mouse 11beta-HSD2 up to 20 uM
T1 sequence (whole entry): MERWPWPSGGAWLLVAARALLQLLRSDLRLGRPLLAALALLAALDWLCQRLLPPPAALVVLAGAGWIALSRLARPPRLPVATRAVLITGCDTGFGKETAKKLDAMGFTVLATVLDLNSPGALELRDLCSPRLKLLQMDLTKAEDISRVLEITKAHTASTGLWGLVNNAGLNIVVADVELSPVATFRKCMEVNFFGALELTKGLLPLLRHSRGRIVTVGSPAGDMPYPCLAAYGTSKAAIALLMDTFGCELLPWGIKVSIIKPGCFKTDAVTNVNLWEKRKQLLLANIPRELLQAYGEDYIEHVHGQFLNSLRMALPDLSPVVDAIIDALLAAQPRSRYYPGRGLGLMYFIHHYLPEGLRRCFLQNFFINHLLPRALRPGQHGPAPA

[2] = species on record: Macaca fascicularis; test: Inhibition of cynomolgus monkey 11beta-HSD2 up to 20 uM
[3] = Selectivity ratio of Ki for recombinant mouse 11beta-HSD1 expressed in HEK293 cell microsomes to Ki for recombinant cynomolgus monkey 11beta-HSD1 expressed in HEK293 cell microsomes
[4] = biological target: T2, 11-beta-hydroxysteroid dehydrogenase type 2 (Rattus norvegicus) (UniProt P50233); test: Inhibition of rat 11beta-HSD2 up to 20 uM
T2 sequence (whole entry): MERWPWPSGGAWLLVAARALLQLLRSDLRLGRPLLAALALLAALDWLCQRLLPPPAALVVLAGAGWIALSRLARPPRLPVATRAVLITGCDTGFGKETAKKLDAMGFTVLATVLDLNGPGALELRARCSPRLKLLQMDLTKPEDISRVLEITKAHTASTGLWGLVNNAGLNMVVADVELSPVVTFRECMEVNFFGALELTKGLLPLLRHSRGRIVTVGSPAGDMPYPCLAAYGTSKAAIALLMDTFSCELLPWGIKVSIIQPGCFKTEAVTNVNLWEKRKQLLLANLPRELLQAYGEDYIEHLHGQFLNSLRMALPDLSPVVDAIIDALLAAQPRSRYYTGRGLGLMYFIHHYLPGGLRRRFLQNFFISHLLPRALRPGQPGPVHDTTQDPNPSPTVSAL

[5] = biological target: T3, 11-beta-hydroxysteroid dehydrogenase type 2 (Homo sapiens) (UniProt P80365); test: Inhibition of recombinant human 11beta-HSD2 expressed in cells up to 30 uM using […] as substrate by LC-MS analysis; type: cell-based
T3 sequence (whole entry): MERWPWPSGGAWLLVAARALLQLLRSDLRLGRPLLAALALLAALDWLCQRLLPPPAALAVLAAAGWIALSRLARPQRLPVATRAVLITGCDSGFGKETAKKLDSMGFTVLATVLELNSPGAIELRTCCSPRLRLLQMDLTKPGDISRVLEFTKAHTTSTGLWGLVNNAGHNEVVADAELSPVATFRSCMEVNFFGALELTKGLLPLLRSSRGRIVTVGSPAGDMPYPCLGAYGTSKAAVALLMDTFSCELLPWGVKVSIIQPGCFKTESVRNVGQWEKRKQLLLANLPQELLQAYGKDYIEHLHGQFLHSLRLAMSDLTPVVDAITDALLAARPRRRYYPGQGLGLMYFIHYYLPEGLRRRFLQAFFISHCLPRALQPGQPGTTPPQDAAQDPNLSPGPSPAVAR

[6] = biological target: T4, Nuclear receptor subfamily 1 group I member 2 (Homo sapiens, UniProt O75469); test: Activation of PXR (unknown origin); type: ADME
T4 sequence (O75469 whole entry): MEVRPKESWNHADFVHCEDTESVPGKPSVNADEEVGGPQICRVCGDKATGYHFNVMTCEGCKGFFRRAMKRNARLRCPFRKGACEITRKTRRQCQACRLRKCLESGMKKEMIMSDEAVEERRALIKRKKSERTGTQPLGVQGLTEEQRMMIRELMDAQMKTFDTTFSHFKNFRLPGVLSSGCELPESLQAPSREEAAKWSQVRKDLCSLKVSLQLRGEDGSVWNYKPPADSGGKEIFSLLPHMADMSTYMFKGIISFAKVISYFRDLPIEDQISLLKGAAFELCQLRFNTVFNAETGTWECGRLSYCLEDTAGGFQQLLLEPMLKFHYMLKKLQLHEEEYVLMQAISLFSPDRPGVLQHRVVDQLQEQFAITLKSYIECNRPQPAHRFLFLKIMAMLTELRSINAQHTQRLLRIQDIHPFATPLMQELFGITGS

[7] = biological target: 11-beta-hydroxysteroid dehydrogenase 1 (Mus musculus, UniProt P50172); test: Inhibition of recombinant mouse 11beta-HSD1 expressed in HEK293 cell microsomes using [3H]cortisone as substrate after 4 hrs by homogeneous immuno-radiometric scintillation proximity assay
11-beta-hydroxysteroid dehydrogenase 1, sequence (P50172 whole entry): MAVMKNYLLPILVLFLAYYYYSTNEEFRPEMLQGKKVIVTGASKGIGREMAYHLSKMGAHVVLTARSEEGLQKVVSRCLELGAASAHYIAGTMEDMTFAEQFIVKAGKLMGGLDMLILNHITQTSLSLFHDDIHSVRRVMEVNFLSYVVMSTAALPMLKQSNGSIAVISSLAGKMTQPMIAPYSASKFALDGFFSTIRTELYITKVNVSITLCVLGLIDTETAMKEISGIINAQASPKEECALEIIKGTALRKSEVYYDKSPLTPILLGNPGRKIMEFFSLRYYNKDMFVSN

Row | SMILES | inhibition [1] | inhibition [2] | Ratio Ki [3] | inhibition [4] | inhibition [5] | EC50 [6] | IC50 [7]
1 | CC(C)(O)c1cccn2c(C3(c4ccc(Cl)cc4)CC3)nnc12 | inactive | inactive | 55 | inactive | inactive |  | 
2 | OCC(O)c1cccn2c(C3(c4ccc(Cl)cc4)CC3)nnc12 (centres undefined) |  |  |  |  |  | > 50 µM | > 10 µM
3 | OCc1cccn2c(C3(c4ccc(Cl)cc4)CC3)nnc12 |  |  |  |  |  | 25 µM | 3.8 µM
